# From US20130216553A1, “Compositions and Methods for Modulation and Detection of Immune and Inflammatory Responses” (priority 2010, published 2013)
# * marks the point of attachment. Palmitoyl = CCCCCCCCCCCCCCCC(=O)*
# Assays:
# [1] = tested on: Bone marrow-derived DCs from TLR2^−/− mice; assay: Stimulation of bone marrow dendritic cells from TLR2^−/− mice (IL-6 ELISA, surface activation markers); format: cell-based, mouse; conditions: TLR2^−/− BMDCs, plate-bound LPS (1 μg), MMP (10 μg) or PE DHC (2.5 μg), supernatants after 18 hrs
# Description: (§1) Bone marrow cells from C57BL/6 and TLR2^−/− mice were cultured at 2×10^5 cells/ml in RPMI containing 10% FCS, 2-ME, and 20 ng/ml recombinant murine GM-CSF for 9 days. Bone marrow DCs (BMDCs) were harvested at Day 9 and were greater than 80% CD11c+. LPS (1 μg), MMP (10 μg) (a bacterial lipoprotein and known TLR-2 ligand: Palmitoyl-Cys ((RS)-2,3-di(palmitoyloxy)-propyl)-Ser-Ser-Asn-Ala-OH(pam3-Cys-Ser-Ser Asn-Ala-OH) (Bachem H-9460), PE DHC (2.5 μg) or 70% EtOH, all in 20 ul volumes, were allowed to dry in the wells of a 24-well plate overnight prior to the addition of BMDCs. BMDCs were cultured in the ligand-bound 24-well plates at 1×10^6 cells/ml in RPMI containing GM-CSF. After 18 hrs, culture supernatants were harvested and tested for IL-6 via ELISA.
# (§2) The effects of PE DHC on antigen presenting cell (APC) activation in vitro were examined. Dendritic cells (BMDCs) (>85% CD11c+) were derived from the bone marrow of WT or TLR2^−/− mice and cultured either alone or with EtOH, LPS, MMP (a TLR2 ligand), or PE DHC. After 18 Ins supernatants were assayed for IL-6. […] BMDCs were also assayed for expression of the surface activation markers B7.2 and MHC class II.
# [2] = tested on: Bone marrow-derived DCs from wild-type (WT) mice; assay: Stimulation of bone marrow dendritic cells from wild-type mice (IL-6 ELISA, surface activation markers); format: cell-based, mouse; conditions: WT BMDCs, plate-bound LPS (1 μg), MMP (10 μg) or PE DHC (2.5 μg), supernatants after 18 hrs
# Description: as §1, §2
substance,measurement,setting,value
"Palmitoyl-Cys ((RS)-2,3-di(palmitoyloxy)-propyl)-Ser-Ser-Asn-Ala-OH ({Palmitoyl-Cys((RS)-2,3-di(palmitoyloxy)-propyl)}-SSNA-OH) [MMP, a bacterial lipoprotein and known TLR-2 ligand (Bachem H-9460)]",IL-6 secretion,[1],did not
same,IL-6 secretion,[2],resulted in IL-6 secretion
